The numbers were not newly measured in publication PMC2737817 (Bioorganic & medicinal chemistry letters, 2009), which cites them from elsewhere.

By IC50 is commonly meant the midpoint of a concentration-inhibition curve.

The subject of one data set is GPI/LMMP. The settings on record: read-out: Functional Bioactivity GPI (IC50); ± S.E.M.; ref [42]; SEM.
In another data set the test system is MVD. The settings on record: read-out: Functional Bioactivity MVD (IC50); ± S.E.M.; ref [42]; SEM.

Turning to Tyr-Pro-Phe-Phe-NH2 [EM-2], the half-maximal inhibitory concentration (IC50) in the data set on GPI/LMMP is 15 ± 2 nM.
For the substance Tyr-Pro-Trp-Phe-NH2 [EM-1], the IC50 with MVD is 1710 ± 110 nM; in the data set on GPI/LMMP, 28 ± 3 nM.
